Consider 10 compounds from patent US20250136606A1, “MODULATORS OF TRPML, THEIR COMPOSITIONS AND METHODS OF USE” (Caraway Therapeutics, Inc., priority 2021, published 2025).

Read-outs that look alike come from different tables or passages of the source. A value given as a limit tells only on which side of the number the result lay.

Test [1] relates to TRPML1. The conditions noted are these: cited from earlier work.
The target of test [2] is TRPML1 (Homo sapiens, UniProt Q9GZU1). The test is described as follows: Fluorescent TRPML1 assay (Fluo4-AM calcium fluorescence in doxycycline-induced HEK-293 Trex cells). Type of test: cell-based. In outline: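 hTRPML1 (mutated for cell-surface expression) in HEK-293 Trex, dox 0.5 ug/mL o/n; Fluo4-AM 1 uM ~60 min, then ~60 min de-esterification, dark; modified Ringer's + 10 mM Ca. Cmpds 20 uM–6 nM final, half-log, n=3. Ex480/Em540; % activity vs ctrls; EC50 by nonlinear regression.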
Sequence of TRPML1 (Homo sapiens, UniProt Q9GZU1) (Q9GZU1 whole entry L15A/L16A/L577A/L578A, form open): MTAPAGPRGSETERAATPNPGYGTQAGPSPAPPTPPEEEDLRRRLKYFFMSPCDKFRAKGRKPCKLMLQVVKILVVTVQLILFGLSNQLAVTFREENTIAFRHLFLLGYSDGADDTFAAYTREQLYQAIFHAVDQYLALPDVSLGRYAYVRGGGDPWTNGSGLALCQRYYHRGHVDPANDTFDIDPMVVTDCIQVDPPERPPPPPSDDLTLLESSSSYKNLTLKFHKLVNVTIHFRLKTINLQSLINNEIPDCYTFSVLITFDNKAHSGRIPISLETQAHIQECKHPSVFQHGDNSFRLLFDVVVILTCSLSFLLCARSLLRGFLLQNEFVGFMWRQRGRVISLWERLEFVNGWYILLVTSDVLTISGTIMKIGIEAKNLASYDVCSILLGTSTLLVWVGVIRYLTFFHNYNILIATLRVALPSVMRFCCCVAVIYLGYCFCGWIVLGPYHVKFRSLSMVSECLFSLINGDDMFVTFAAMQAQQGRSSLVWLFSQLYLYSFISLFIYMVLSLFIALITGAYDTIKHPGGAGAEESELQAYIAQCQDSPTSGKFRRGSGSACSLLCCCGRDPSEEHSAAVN

The next test deals with T1, TRPML2 (Homo sapiens, UniProt Q8IZK6).
T1 construct: expressed in transfected cells
T1 sequence (Q8IZK6 1-566): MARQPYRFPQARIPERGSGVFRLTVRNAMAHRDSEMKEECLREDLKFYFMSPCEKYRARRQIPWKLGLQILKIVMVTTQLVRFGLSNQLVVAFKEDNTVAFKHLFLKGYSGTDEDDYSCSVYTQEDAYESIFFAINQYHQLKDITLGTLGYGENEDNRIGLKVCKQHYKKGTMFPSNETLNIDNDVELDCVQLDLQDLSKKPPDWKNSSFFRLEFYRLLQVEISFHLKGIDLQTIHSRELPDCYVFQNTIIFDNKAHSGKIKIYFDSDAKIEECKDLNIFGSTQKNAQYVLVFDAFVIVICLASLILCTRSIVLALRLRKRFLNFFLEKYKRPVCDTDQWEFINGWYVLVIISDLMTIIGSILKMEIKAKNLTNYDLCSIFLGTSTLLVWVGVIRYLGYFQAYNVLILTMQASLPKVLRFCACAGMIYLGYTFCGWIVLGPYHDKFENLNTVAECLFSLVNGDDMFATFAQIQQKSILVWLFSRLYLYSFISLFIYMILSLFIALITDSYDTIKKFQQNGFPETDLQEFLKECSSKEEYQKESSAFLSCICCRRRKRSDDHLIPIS
The test is described as follows: Fluorescent TRPML2 assay (performed as for TRPML1, substituting the TRPML2 subtype). Type of test: cell-based. A digest of the protocol:
(§1)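 Calcium-influx readout: Fluo4 fluorescence at 480/540 nm, normalised to positive and negative controls per plate, EC50 fitted by non-linear regression. Cells were HEK-293 Trex stable lines, channel expression induced overnight with 0.5 ug/mL doxycycline; tested at 20 micromolar down to 6 nanomolar final, half-log steps, triplicate.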

The next test concerns the target T2, TRPML3 (Homo sapiens, UniProt Q8TDD5).
T2 construct: expressed in transfected cells
T2 sequence (Q8TDD5 1-553): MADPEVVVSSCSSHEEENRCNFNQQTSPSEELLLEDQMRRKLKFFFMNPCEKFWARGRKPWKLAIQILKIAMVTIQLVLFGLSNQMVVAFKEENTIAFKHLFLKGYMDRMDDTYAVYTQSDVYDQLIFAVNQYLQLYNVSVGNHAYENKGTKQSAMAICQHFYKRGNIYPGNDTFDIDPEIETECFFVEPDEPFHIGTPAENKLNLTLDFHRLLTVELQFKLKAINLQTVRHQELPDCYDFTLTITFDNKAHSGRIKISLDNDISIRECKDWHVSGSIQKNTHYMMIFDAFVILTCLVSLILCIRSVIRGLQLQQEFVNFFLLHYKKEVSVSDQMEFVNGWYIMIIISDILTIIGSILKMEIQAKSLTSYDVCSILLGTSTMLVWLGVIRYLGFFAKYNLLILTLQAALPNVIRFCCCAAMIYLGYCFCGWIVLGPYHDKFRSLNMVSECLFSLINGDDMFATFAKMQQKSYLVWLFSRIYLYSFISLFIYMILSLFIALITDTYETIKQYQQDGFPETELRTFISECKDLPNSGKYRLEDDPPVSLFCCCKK
In words: Fluorescent TRPML3 assay (performed as for TRPML1, substituting the TRPML3 subtype). Type of test: cell-based. A digest of the protocol: as §1

ML-SA1: the “[Ca2+] increases” value with TRPML1 [1] (HEK293 cells stably or transiently expressing TRPML1 with its lysosomal targeting sequence deleted) was “significant [Ca2+] increases”. Also, in the test on TRPML1 [1] (TRPMLs, high concentrations needed), the “concentration needed to effectively activate TRPMLs” value was ~10 µM.

As to `Cc1nccnc1-c1cn(-c2cccc(OC(F)(F)F)c2)c2ncnc(N3CCN(C(=O)OC(C)(C)C)C[C@@H]3C)c12` [Compound 304, tert-butyl (S)-3-methyl-4-(5-(3-methylpyrazin-2-yl)-7-(3-(trifluoromethoxy)phenyl)-7H-pyrrolo[2,3-d]pyrimidin-4-yl)piperazine-1-carboxylate], the EC50 on TRPML1 [2] (fluorescent calcium assay) fell in the range of 0.5 to 2 µM; at TRPML2 (fluorescent calcium assay), 0.5 to 2 µM; at TRPML3 (fluorescent calcium assay), 0.1 to 0.5 µM.

On to `C[C@@H]1CN(c2ncnc3c2c(C2CC2)nn3-c2cc(F)cc(F)c2)CCN1C(=O)OC(C)(C)C` [Compound 239, tert-butyl (R)-4-(3-cyclopropyl-1-(3,5-difluorophenyl)-1H-pyrazolo[3,4-d]pyrimidin-4-yl)-2-methylpiperazine-1-carboxylate], for which the EC50 is < 0.1 µM at TRPML1 [2] (fluorescent calcium assay), 0.5 to 2 µM at TRPML2 (fluorescent calcium assay) and < 0.1 µM at TRPML3 (fluorescent calcium assay).

For `C[C@@H]1CN(C(=O)OC(C)(C)C)CCN1c1ncnc2c1c(C1CC1)cn2-c1ccc(Cl)cc1` [Compound 147, tert-butyl (R)-4-(7-(4-chlorophenyl)-5-cyclopropyl-7H-pyrrolo[2,3-d]pyrimidin-4-yl)-3-methylpiperazine-1-carboxylate], the EC50 on TRPML1 [2] (fluorescent calcium assay) was 0.1 to 0.5 µM; at TRPML2 (fluorescent calcium assay), 0.1 to 0.5 µM; on TRPML3 (fluorescent calcium assay), < 0.1 µM.

Regarding `Cc1cncc(-n2cc(C3CC3)c3c(N4CCN(C(=O)OC(C)(C)C)[C@H](C)C4)ncnc32)c1` (single isomer, unassigned) [Compound 175], the EC50 on TRPML1 [2] (fluorescent calcium assay) was 0.5 to 2 µM; on TRPML2 (fluorescent calcium assay) it was > 2 µM; on TRPML3 (fluorescent calcium assay), 0.5 to 2 µM.

As for `CC(C)(C)OC(=O)N1CCN(c2ncnc3c2c(C2CC2)cn3-c2cc(F)cc(F)c2)C[C@H]1C(F)F` (single isomer, unassigned) [Compound 314], the values for the EC50 at TRPML1 [2] (fluorescent calcium assay), on TRPML2 (fluorescent calcium assay) and at TRPML3 (fluorescent calcium assay) were 0.5 to 2 µM, > 2 µM and 0.5 to 2 µM, respectively.

As to `C[C@H]1CN(C(=O)OC(C)(C)C)CCN1c1ncnc2c1c(N1CCCC1)cn2C1CCCCC1` [Compound 334, tert-butyl (S)-4-(7-cyclohexyl-5-(pyrrolidin-1-yl)-7H-pyrrolo[2,3-d]pyrimidin-4-yl)-3-methylpiperazine-1-carboxylate], the results for the EC50 on TRPML1 [2] (fluorescent calcium assay), on TRPML2 (fluorescent calcium assay) and at TRPML3 (fluorescent calcium assay) were < 0.1 µM, 0.1 to 0.5 µM and < 0.1 µM, respectively.

Regarding `C[C@H]1CN(C(=O)OC(C)(C)C)CCN1c1ncnc2c1c(C1CCC1)cn2-c1cccc(F)c1` [Compound 641, tert-butyl (S)-4-(5-cyclobutyl-7-(3-fluorophenyl)-7H-pyrrolo[2,3-d]pyrimidin-4-yl)-3-methylpiperazine-1-carboxylate], the EC50 on TRPML1 [2], on TRPML2 and on TRPML3 was < 0.1 µM in each case.

In the case of `C[C@@H]1CN(c2ncnc3c2c(C(F)F)cn3-c2cc(C#N)ccn2)[C@@H](C)CN1C(=O)OC(C)(C)C` [Compound 520, tert-butyl (2R,5S)-4-(7-(4-cyanopyridin-2-yl)-5-(difluoromethyl)-7H-pyrrolo[2,3-d]pyrimidin-4-yl)-2,5-dimethylpiperazine-1-carboxylate], the EC50 is < 0.1 µM on TRPML1 [2], 0.1 to 0.5 µM on TRPML2 and < 0.1 µM on TRPML3.

In the case of `C[C@@H]1CN(c2ncnc3c2c(C(F)(F)F)cn3-c2cncc(C#N)c2)[C@@H](C)CN1C(=O)OC(C)(C)C` [Compound 662, tert-butyl (2R,5S)-4-(7-(5-cyanopyridin-3-yl)-5-(trifluoromethyl)-7H-pyrrolo[2,3-d]pyrimidin-4-yl)-2,5-dimethylpiperazine-1-carboxylate], the EC50 on TRPML1 [2] was < 0.1 µM; at TRPML2, 0.1 to 0.5 µM; on TRPML3, < 0.1 µM.
